This note sets out measurements from US8071616B2, “Pyridine, quinoline, and isoquinoline N-oxides as kinase inhibitors” (Bayer Healthcare LLC, priority 2002, dated 2011).

Structures are written as SMILES.

The term melting point denotes the temperature of the solid-liquid transition.

On to `CNC(=O)c1cc(Oc2ccc(NC(=O)Nc3ccc(Cl)c(C(F)(F)F)c3)cc2)cc[n+]1[O-]` [Experimental Synthesis 1, N-[4-chloro-3-(trifluoromethyl)phenyl]-N′-{4-[2-(N-methylcarbamoyl)-1-oxo-(4-pyridyloxy)]phenyl}urea], for which the melting point was in the range of 232 to 234 °C.
